From patent US8299096B2, “Method for treating pulmonary diseases using rho kinase inhibitor compounds” (priority 2008, dated 2012)

Legend:
[1] = test system: ovalbumin-sensitized mice; assay: Prevention of airway hyperreactivity development, anti-inflammatory dosing paradigm (Penh); format: in vivo, mouse; details: oral, 15 μMol/kg once a day during days 27 to 31
[2] = Compound plasma concentrations in mice at 15 min post administration; format: in vivo, mouse; details: mouse plasma, 15 minutes, oral
Method: Additionally, compound concentrations were determined in the plasma and lungs of male, ovalbumin-sensitized, Balb/c mice from a murine model of asthma. Test compounds were formulated in water or 1% polysorbate 80 and dosed at 15 μmol/kg for intraperitoneal (IP) or oral (PO) administration or formulated for intratracheal (IT) administration and dosed at 5 μmol/kg, which directly targets the lungs. Following completion of the in vivo study, mice were euthanized and blood and plasma collected approximately 2.5-3 hours post administration of test compound for bronchodialator (BD) studies and 24 hours post administration for anti-inflamatory (AI) studies. Lungs were homogenized in Matrix A lysing tubes using a FastPrep 24 tissue and cell homogenizer (MP Biomedicals, Solon, Ohio). Both plasma samples and lung extracts were assayed for compound concentrations using an on-line, solid phase extraction LC/MS/MS system.

[3] = test system: ovalbumin-sensitized mice; assay: Anti-inflammatory assay in ovalbumin-sensitized mouse model of asthma (BALF cells and cytokines); format: in vivo
From the text: Mouse model of asthma via ovalbumin sensitization was created as described in Example 5. The anti-inflammatory dosing paradigm (FIG. 4) was utilized to evaluate the anti-inflammatory effects of experimental compounds. The anti-inflammatory dosing paradigm consists of dosing the animals once a day starting on day 27 and finishing on either day 30 or 31 (1 hr prior to the aerosolized ovalbumin challenges on days 28 to 30) but not on day 32 when hyper-reactivity evaluation occurs.
Bronchoalveolar lavage fluid (BALF) was collected by infusing 3.0 ml of saline with 10% fetal calf serum into the lungs via the trachea and then withdrawing the fluid. The total amount of cells/ml of BALF fluid was determined via manual cell count on hemocytometer. The BALF was centrifuged, supernatant removed and analyzed for cytokine concentrations as described below, and cell pellet reconstituted in 500 μL of fluid. Cytospin slides were prepared from the cell pellet using 100 μL of fluid and spinning samples for 5 minutes at 5000 rpms in a cytospin centrifuge. Following Hema3 stain, relative percentages of individual leukocytes were determined on a 200 cell count for each sample. The final concentration of individual leukocyte cell types per ml of BALF was determined by multiplication of the relative percentage of individual leukocytes with the total amount of cells/ml of BALF fluid.
The concentrations of cytokines in the BALF samples were determined using commercially available Bio-plex kits (Bio-Rad) for the detection of mouse IL-5, IL-13, and Eotaxin. The analysis of cytokine levels was measured using the Bio-Plex 200 (Bio-Rad) system according to the manufacturer's instructions.

[4] = test system: ovalbumin-sensitized mice; assay: Bronchodilator assay in ovalbumin-sensitized mouse model of asthma (Penh); format: in vivo; details: oral doses
Method: Male BALB/c mice were ordered from Charles River Laboratories (Raleigh, N.C.). The animals were approximately 19 to 21 grams at time of receipt. Upon arrival, the animals were randomized into groups of five males per cage and assigned to a dosing group. Animals were quarantined for 7 days under test conditions. They were observed daily for general health status and ability to adapt to the water bottles.
Animals were sensitized on day 0 and 14 of study by an intraperitoneal injection with 20 μg of ovalbumin (ova) and 2.0 mg aluminum hydroxide (alum) which initiates the development of a specific T-helper (Th) cells type 2 resulting in asthmatic animals. One group of animals received an injection of saline to use as non-asthmatic control animals. All animals were challenged with aerosolized 1% ova once daily for 25 minutes on days 28, 29, and 30 (Zosky, et al. Respiratory Research, 2004; 5:15). Aerosol challenge consists of using an Aerogen Aeroneb nebulizer and controller with a particle size of 4-6 μm mass median aerodynamic diameter (MMAD) with a distribution of 400 μl per minute. This aerosol challenge is necessary to target the Th2-driven allergic inflammation in the lower airways.
The test compounds and the control vehicle were administered to animals on the day of airway hyperreactivity evaluation 30 minutes to 1 hour before the evaluation to determine the bronchodilator effects of the compounds according to the bronchodilator dosing paradigm (FIG. 3A). Compounds were administered p.o. (orally), i.p. (intraperitoneally) at 15 μMol/kg unless otherwise noted (Table 4). Alternatively, compounds were administered i.t. (intratracheally) at varying doses as shown (FIG. 3B). On day 32 of the experiment, airway hyperreactivity was evaluated by placing conscious, unrestrained animals in a whole body plethysmometer (Buxco Wilmington, N.C.) and exposing them to escalating doses of nebulized methacholine, a known bronchial constrictor which acts through the muscarinic receptors of the lungs, (doses: […]-50 mg/ml). Exposure to the methacholine doses consisted of a 3 minute period during which a nebulizer was aerosolizing the methacholine and an additional 3 minute period following the cessation of nebulization. Over this 6 minute period, the plethysmometer monitors and generates numerical values for all parameters of the breath pattern. Enhanced pause (Penh), a unitless index of airway hyperreactivity, is derived from the expiratory side of the respiratory waveform measured via the plethysmograph and is used as an indirect measure of airway resistance and hyperreactivity. […] Following the methacholine dose response, all animals were anesthetized, bled and euthanized.
Within each experiment, a mouse was given a single compound and exposed to increasing doses of methacholine [0 (baseline), 0.375, 0.75, 1.5, 3, 6, 12, 25, 50 mg/ml]. The Penh value at each of the dose levels of methacholine represents the 6-minute average response. Change from baseline (CFB) in Penh was calculated at each methacholine dose and the area under the curve (AUC) for these CFB values was calculated using the trapezoidal rule. This same approach was applied for each mouse across multiple experiments.
For statistical analyses, a linear mixed-effects model where the response was the log 10 transformed value of AUC described above was used. Data from equal experimental conditions across experiments performed on different days were pooled for statistical analysis and data reporting. The various compounds were compared adjusting for the log 10-transformed baseline value of Penh and the chamber (1 of 10) of the plethysmometer each mouse was contained in during an experiment. A random intercept for each experiment was assumed to account for possible similarities of the results obtained from a given experiment (i.e., as a “blocking effect”).
For Table 4 and Table 5, Penh values are reported as log 10 transformed AUC values. […]

murine eosinophils = assay: Murine eosinophil chemotaxis (eotaxin-induced); format: cell-based, mouse; details: 10 nM eotaxin, one hour
Method: Mouse Eosinophil Isolation: Bronchoalveolar lavage was collected from ovalbumin sensitized and challenged mice in a volume of 2.5 mL lavage buffer. The lavage buffer was 0.9% saline with 10% fetal bovine serum. The pooled lavages were maintained on ice until use. The murine eosinophils were isolated using MACS cell separation (Miltenyi Biotech) by depletion of B cells and T cells by positive selection following incubation with antibody conjugated magnetic beads specific for CD45-R (B220) and CD90 (Thy 1.2), which bind B cells and T cells, respectively.
In Vitro Chemotaxis: Eosinophil chemotaxis was assessed using a modified Boyden Chamber (Neuroprobe, 96-well) with a 5 μm pore membrane. The ability of the tested compounds to block chemotaxis induced by a 10 nM eotaxin challenge (mouse) or 1 nM eotaxin challenge (human) during one hour incubation at 37° C. with 5% CO2 was assessed. Chemotaxis was quantified via microscopy by counting the number of migrated cells in at least 3 view fields per treatment.

human eosinophils = assay: Human eosinophil chemotaxis (eotaxin-induced); format: cell-based; details: 1 nM eotaxin, one hour
From the text: Human Eosinophil Isolation: Peripheral blood from healthy human volunteers was collected and the PMNs separated via Ficoll-paque density centrifugation followed by hypotonic lysis of the red blood cells. Subsequently, the human eosinophils were isolated from the cell suspension via StemCell Technologies Human Eosinophil Enrichment kit (Cat. No 19256) according to the manufacturer's recommendations. Briefly, unwanted cells were specifically labeled with dextran-coated magnetic nanoparticles using bispecific Tetrameric Antibody Complexes (TAC) directed against cell surface antigens on human blood cells: […] The unwanted cells are then separated from the unlabelled eosinophils using the EasySep® magnetic isolation procedure. In Vitro Chemotaxis: […]

rat aorta = assay: Aortal relaxation assay, norepinephrine precontracted; details: 100 nM norepinephrine, 100 μM compound
Method: The effects of compounds to induce relaxation of pre-contracted rat pulmonary artery and rat aorta were determined. Male Sprague-Dawley rats weighing 301-325 gm were sacrificed by asphyxiation in a CO2 chamber. Pulmonary artery or aorta were excised, cleaned of connective tissue and cut into cylindrical segments of 2-3 mm length. The preparations were mounted in a tissue bath by tying two threads of surgical silk through the lumen of the vessel. One silk was used to anchor the tissue to a metal wire in the bath and the other silk was connected to a force transducer. Preparations were mounted in 5 ml water-jacketed organ baths (Radnoti Glass Technology) filled with Krebs buffer (95 mM NaCl, 5 mM KCl, 2.6 mM CaCl2, 1.2 mM MgSO4, 24.9 mM NaHCO3, 1.2 mM KH2PO4, 10 mM glucose) maintained at 37° C. and gassed with 95% O2 and 5% CO2. Contractile tensions were measured using an isometric force transducer (Grass Instruments) and signals were analyzed using specialized software (Chart v5.5, ADInstruments). […] For pulmonary artery, compounds were added cumulatively to the bath every 30 minutes and reductions in tension were recorded. […] For aorta, a single dose of compound was added and reductions in tension were recorded.

human neutrophils = assay: Human neutrophil chemotaxis (fMLP-induced); format: cell-based; details: 1 h, read-out: Chemotaxis Avg IC50
Method: Peripheral blood from healthy human volunteers was collected and the neutrophils were isolated by Ficoll-paque density centrifugation followed by dextran sedimentation and hypotonic lysis of the red blood cells. Neutrophil chemotaxis was assessed using a modified Boyden Chamber (Neuroprobe, 96-well) with a 3 μm pore polycarbonate membrane. The ability of the tested compounds to block chemotaxis induced by a 1 μM fMLP challenge during a one hour incubation at 37° C. with 5% CO2 was assessed in a dose response manner.

rat tracheal rings = assay: Tracheal relaxation assay, carbachol precontracted rings; details: Rattus norvegicus, read-out: IC50 Avg, tracheal ring relaxation
Method: Trachea were excised, cleaned of connective tissue and cut into cylindrical segments of 2-3 mm length. Two stainless steel wires were guided through the lumen of the tracheal ring. One wire was fixed in the tissue bath and the other was connected to a force transducer via surgical silk. […] Indomethacin (1 μM), a cyclooxygenase inhibitor, was added to the Krebs buffer and was present throughout the experiments. Contractile tensions were measured using an isometric force transducer (Grass Instruments) and signals were analyzed using specialized software (Chart v5.5, ADInstruments). The preparations were allowed to equilibrate at a resting tension of 0.3 to 0.5 gm prior to two challenges with 60 mM KCl to assess tissue viability. After washing, tissues were treated with 1 μM carbachol for 10 to 15 minutes to induce a contractile response. Test Compounds were added cumulatively to the bath every 30 minutes and reductions in tension were recorded. Basal tension was subtracted from all values and data were reported as a percentage of the maximal carbachol-induced contraction. Data were fit to the Hill equation using GraphPad Prism v5 software.

[5] = 15 μmol/kg/oral on days 27 to 31

## CS(=O)(=O)Nc1cccc(CN2CC[C@@H](Nc3cccc4cnccc34)C2)c1 [Compound 2.038]
[1]
  Prevention of airway hyperreactivity to metacholine on Day 32: prevention of airway hyperreactivity
[2]
  Detection in mouse plasma 15 minutes after oral dosing: readily detectable
[3]; [5]
  Eotaxin level in BALF: reduced levels
  IL-5 level in BALF: reduced levels
  IL-13 level in BALF: reduced levels
[3]; dosed orally to day 31, anti-inflammatory dosing paradigm
  Airway eosinophil infiltration (eosinophils per ml of BALF): reduced
[4]
  Reduction in airway hyperresponsivness: statistically significant reduction
Murine eosinophils
  Eotaxin-induced chemotactic response of murine eosinophils: inhibited
Human eosinophils
  Eotaxin-induced chemotactic response of human eosinophils: inhibited

## OCCOc1cccc(CN2CC[C@@H](Nc3cccc4cnccc34)C2)c1 [Compound 2.039]
Rat aorta
  Norepinephrine-induced tension of aortal ring: fully reversed

## Cc1cncc2cccc(S(=O)(=O)N3CCCNC[C@@H]3C)c12 [Compound H-1152, 4-methyl-5-(2-methyl-[1,4]diazepan-1-sulfonyl)isoquinoline]
Human neutrophils
  IC50: 4350 nM
Rat tracheal rings
  IC50: 164 nM
